Our source for the melting point, EC50 and IC50 values is patent US20070149562A1, “OXOPIPERIDINE DERIVATIVES, PREPARATION AND THERAPEUTIC USE THEREOF” (SANOFI-AVENTIS, priority 2004, published 2007).

Where a name gives a salt, the structure may show the parent alone. Where only a bound is given, the exact number is not on record here.

Data set [1] concerns the target T1, human MC4 receptor (Homo sapiens, UniProt P32245).
T1 construct: host or cells: CHO-K1
Description: Functional assay of agonist activity: cAMP formation. Format: cell-based. The settings on record: CHO-K1 cells expressing human MC4 receptor, 1 hour incubation, read-out: EC50 with respect to the MC4 receptor. Here is the method:
(§1) A functional assay is used to differentiate between the agonist activity and the antagonist activity. For this, the formation of cyclic adenosine monophosphate (cAMP) generated by activation of the MC3 receptor or of the MC4 receptor is assayed.
CHO-K1 cells, expressing the human MC4 receptor at a moderate density (Euroscreen), are seeded into DMEM/Nutrient Mix F12 culture medium (Gibco/BR1) containing 10% of foetal calf serum, 0.5% sodium pyruvate, 1% L-glutamine, 1% non-essential amino acids, 200 mg/l hygromycin B and 0.5% PenStrep, these products being provided by Gibco/BR1, except the calf serum (Biowhittaker) and hygromycin B (Sigma).
(§2) The compounds to be tested (diluted in 10% DMSO), in an amount of 10 ul at a concentration of 10 times the final concentration, are added to the plates of cells (final volume=100 ul/well). After incubation for 1 hour (37° C., 5% CO2), the amount of cAMP is assayed using Tropix kits (Appelera) according to the supplier's documentation. The intrinsic activity of the compounds is calculated by comparing the stimulation of cAMP by these compounds to the stimulation induced by 30 nM of NDP MSH (maximum of 100%). The EC50 value for the compounds corresponds to the concentration which produces 50% of the maximum stimulation obtained with this compound.
(cAMP levels reflect the balance of adenylyl cyclase and phosphodiesterase activity.)

Data set [2] has as its target T1, human MC4 receptor. Description: Affinity assay: displacement of [125I]-[Nle4-D-Phe7]-α-MSH binding to cell membranes (SPA). The conditions noted are these: membranes of CHO-K1 cells expressing human MC4 receptor; radioligand 100 pM; read-out: IC50 with respect to the MC4 receptor. Here is the method:
This affinity assay is carried out by measuring the binding of [^125I]-[Nle^4-D-Phe^7]-[…]-MSH to cell membranes. The displacement of this radioligand is used to identify inhibitors of the specific binding to recombinant melanocortin receptors.
For this assay, membranes prepared from CHO-K1 cells expressing the human MC4 receptor at high density (Euroscreen) or membranes, that were purchased (Perkin Elmer Life Sciences, Receptor Biology), of HEK-293 cells expressing hMC3 receptors were used. CHO-K1 cells transfected with the hMC4 receptor gene (Euroscreen) are seeded into DMEM/Nutrient Mix F12 culture medium containing 10% foetal calf serum (Biowhittaker), 1% sodium pyruvate, 1% L-glutamine, 1% non-essential amino acids, 0.4 mg/ml geneticin (G418) and 0.5% PenStrep, these products being provided by Gibco/BR1, except the calf serum. At 80% confluency, the cells are scraped off and the cell pellets are frozen at −80° C.
A tube of cells (approximately 70×10^6 cells) is thawed on ice and resuspended in 10 ml of binding buffer [25 mM HEPES, pH 7.0, 1 mM MgCl2, 1.5 mM CaCl2, 100 mM NaCl, 1 mM 1,10-phenanthroline and 1 tablet of Complete™ (protease inhibitor from Roche) in 50 ml of buffer]using a polytron for 20 seconds. The suspension is centrifuged for 20 min at 19 500 rpm at 4° C. The supernatant is discarded and the pellet is resuspended in 5 ml of binding buffer. The amount of proteins present in the sample is assayed using a Bradford test, and the concentration is adjusted to 3 ug/25 ul by dilution in binding buffer.
[^125I]-[Nle^4, D-Phe^7]-[…]-MSH is diluted in binding buffer+0.2% BSA. SPA beads (wheatgerm agglutinin polyvinyltoluene, Amersham Pharmacia Biotech) are hydrated in the binding buffer+0.2% BSA and are then mixed with the cell homogenate so as to obtain 3 μg of cell proteins and 250 ug of beads in 50 ul. […] The nonspecific binding is defined by NDP-DMSH at 10^-7 M. The total binding is measured by the number of counts per minute in the presence of the radioligand alone. […]
(In general: In a radioligand displacement assay an active substance lowers the binding of a labelled ligand.)

The next data set concerns the target T2, human MC3 receptor (Homo sapiens, UniProt P41968).
T2 construct: expressed in transfected cells; host or cells: CHO(dhfr-)
In words: Functional assay of agonist activity: cAMP formation. Format: cell-based. The settings on record: CHO(dhfr-) cells expressing human MC3 receptor, 1 hour incubation, read-out: EC50 with respect to the MC3 receptor. Here is the method: as §1
CHO(dhfr-) cells expressing the human MC3 receptor are seeded into MEM Eagle culture medium (Sigma) containing 10% of dialysed calf serum, 1% L-glutamine, 1% sodium pyruvate, 20 mg/500 ml L-proline, 0.3 mg/ml Geneticin and 0.5% PenStrep, these products being provided by Gibco/BR1, except for the dialysed calf serum (Cambrex) and the L-proline (Sigma).
as §2

T1 sequence (P32245 whole entry): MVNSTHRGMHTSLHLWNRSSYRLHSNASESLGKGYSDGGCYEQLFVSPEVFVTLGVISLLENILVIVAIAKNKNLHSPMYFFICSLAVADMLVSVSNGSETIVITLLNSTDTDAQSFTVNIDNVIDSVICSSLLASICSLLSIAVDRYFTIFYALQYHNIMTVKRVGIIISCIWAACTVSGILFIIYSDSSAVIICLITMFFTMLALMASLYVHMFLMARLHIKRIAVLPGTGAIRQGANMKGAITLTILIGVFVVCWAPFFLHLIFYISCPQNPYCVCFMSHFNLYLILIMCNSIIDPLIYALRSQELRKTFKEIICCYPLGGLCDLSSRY
T2 sequence (P41968 whole entry): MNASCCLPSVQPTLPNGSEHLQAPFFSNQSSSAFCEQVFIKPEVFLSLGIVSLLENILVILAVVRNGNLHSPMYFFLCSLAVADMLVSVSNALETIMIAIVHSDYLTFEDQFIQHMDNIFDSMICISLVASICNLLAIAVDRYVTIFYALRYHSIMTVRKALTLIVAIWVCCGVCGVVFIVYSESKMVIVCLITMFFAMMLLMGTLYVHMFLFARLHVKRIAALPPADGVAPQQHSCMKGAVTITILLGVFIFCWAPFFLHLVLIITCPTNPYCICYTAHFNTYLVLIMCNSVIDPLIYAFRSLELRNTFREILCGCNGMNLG

`O=C([C@@H](Cc1ccc(Cl)cc1)NC1CCNCC1)N1CCC(Cn2cncn2)(C2CCCCC2)CC1` (as salt: HCl) [Compound 1, N-{(1R)-1-(4-chlorobenzyl)-2-[4-cyclohexyl-4-(1H-1,2,4-triazol-1-ylmethyl)piperidin-1-yl]-2-oxoethyl}piperidin-4-amine] yielded a melting point of 255 °C.
Turning to `N[C@H]1CC[C@@H](N[C@H](Cc2ccc(Cl)cc2)C(=O)N2CCC(Cn3cncn3)(C3CCCCC3)CC2)CC1` (as salt: HCl) [Compound 12, cis-N-{(1R)-1-(4-chlorobenzyl)-2-[4-cyclohexyl-4-(1H-1,2,4-triazol-1-ylmethyl)piperidin-1-yl]-2-oxoethyl}cyclohexane-1,4-diamine], the melting point stood at 159 °C.
For the compound `CS(=O)(=O)N1CCC(N[C@H](Cc2ccc(Cl)cc2)C(=O)N2CCC(Cn3cncn3)(C3CCCCC3)CC2)CC1` (as salt: HCl) [Compound 54, N-{(1R)-1-(4-chlorobenzyl)-2-[4-cyclo-hexyl-4-(1H-1,2,4-triazol-1-ylmethyl)piperidin-1-yl]-2-oxoethyl}-1-(methylsulphonyl)piperidin-4-amine], the melting point was above 200 °C.
With `NCC(=O)N[C@H]1CC[C@@H](N[C@H](Cc2ccc(Cl)cc2)C(=O)N2CCC(Cn3cncn3)(C3CCCCC3)CC2)CC1` (as salt: HCl) [Compound 116, N-[cis-4-({(1R)-1-(4-chlorobenzyl)-2-[4-cyclohexyl-4-(1H-1,2,4-triazol-1-ylmethyl)piperidin-1-yl]-2-oxoethyl}amino)cyclohexyl]glycinamide], the melting point was determined as 128 °C.
On to `O=C([C@@H](Cc1ccc(Cl)cc1)NC1CCNCC1)N1CCC(Cn2cncn2)(C2CCCCC2)CC1` [Compound 1, N-{(1R)-1-(4-chlorobenzyl)-2-[4-cyclohexyl-4-(1H-1,2,4-triazol-1-ylmethyl)piperidin-1-yl]-2-oxoethyl}piperidin-4-amine], for which the concentration for a half-maximal effect (EC50) came to 50 nM on human MC4 receptor [1] and 200 nM at human MC3 receptor. Further, the IC50 at human MC4 receptor [2] came to 250 nM.
In the case of `O=C([C@@H](Cc1ccc(Cl)cc1)NC1CCOCC1)N1CCC(Cn2cncn2)(C2CCCCC2)CC1` [Compound 2, N-{(1R)-1-(4-chlorobenzyl)-2-[4-cyclohexyl-4-(1H-1,2,4-triazol-1-ylmethyl)piperidin-1-yl]-2-oxoethyl}tetrahydro-2H-pyran-4-amine], the melting point turned out to be 75 °C. The 50% effective concentration (EC50) on human MC4 receptor [1] stood at 60 nM. In addition, the IC50 on human MC4 receptor [2] came to 570 nM. For the same compound, the half-maximal effective concentration (EC50) at human MC3 receptor came to 110 nM.
With `N[C@H]1CC[C@@H](N[C@H](Cc2ccc(Cl)cc2)C(=O)N2CCC(Cn3cncn3)(C3CCCCC3)CC2)CC1` [Compound 12, cis-N-{(1R)-1-(4-chlorobenzyl)-2-[4-cyclohexyl-4-(1H-1,2,4-triazol-1-ylmethyl)piperidin-1-yl]-2-oxoethyl}cyclohexane-1,4-diamine], the values for the EC50 on human MC4 receptor [1] and on human MC3 receptor were 20 nM and 100 nM, respectively. At human MC4 receptor [2], the concentration for half-maximal inhibition (IC50) is 200 nM.

One may read the melting point as the temperature of the solid-liquid transition. The term EC50 denotes the concentration needed to bring the measured effect to its halfway point. The IC50 is the midpoint of a concentration-inhibition curve.
